Laboratory results as given in paper PMC8914530 (Data in Brief, 2022).
Read-outs that look alike come from different tables or passages of the source.

What was measured:
[1] = target: T1, CYP2B6 (Homo sapiens, UniProt P20813); test: CYP2B6 Vivid CYP450 Blue fluorescent inhibition assay; assay type: biochemical; details: for CYP2B6 Hillslope: variable slope sigmoidal fit, GraphPad Prism 7.0; for IC50 Ratio: ratio of the IC50 values from the two CYPs, + indicates greater affinity for CYP2B6, – greater affinity for CYP3A4
T1 sequence (P20813 1-491): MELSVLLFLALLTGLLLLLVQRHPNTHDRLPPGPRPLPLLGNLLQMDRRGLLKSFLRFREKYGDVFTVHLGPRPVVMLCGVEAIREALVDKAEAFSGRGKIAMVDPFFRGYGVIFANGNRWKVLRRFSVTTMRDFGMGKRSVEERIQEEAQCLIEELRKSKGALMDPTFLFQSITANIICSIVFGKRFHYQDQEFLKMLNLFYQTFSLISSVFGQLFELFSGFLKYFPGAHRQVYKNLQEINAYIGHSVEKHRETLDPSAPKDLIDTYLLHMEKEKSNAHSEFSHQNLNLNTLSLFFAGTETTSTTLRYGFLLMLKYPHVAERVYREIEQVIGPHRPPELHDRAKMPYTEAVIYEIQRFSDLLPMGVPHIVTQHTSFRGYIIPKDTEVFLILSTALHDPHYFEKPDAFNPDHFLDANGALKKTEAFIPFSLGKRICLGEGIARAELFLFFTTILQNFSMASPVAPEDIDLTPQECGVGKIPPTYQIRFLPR

[2] = target: CYP3A4 (Homo sapiens, UniProt P08684); test: CYP3A4 Vivid CYP450 Red fluorescent inhibition assay; assay type: biochemical; details: for CYP3A4 Hillslope: variable slope sigmoidal fit, GraphPad Prism 7.0
CYP3A4, sequence (P08684 whole entry): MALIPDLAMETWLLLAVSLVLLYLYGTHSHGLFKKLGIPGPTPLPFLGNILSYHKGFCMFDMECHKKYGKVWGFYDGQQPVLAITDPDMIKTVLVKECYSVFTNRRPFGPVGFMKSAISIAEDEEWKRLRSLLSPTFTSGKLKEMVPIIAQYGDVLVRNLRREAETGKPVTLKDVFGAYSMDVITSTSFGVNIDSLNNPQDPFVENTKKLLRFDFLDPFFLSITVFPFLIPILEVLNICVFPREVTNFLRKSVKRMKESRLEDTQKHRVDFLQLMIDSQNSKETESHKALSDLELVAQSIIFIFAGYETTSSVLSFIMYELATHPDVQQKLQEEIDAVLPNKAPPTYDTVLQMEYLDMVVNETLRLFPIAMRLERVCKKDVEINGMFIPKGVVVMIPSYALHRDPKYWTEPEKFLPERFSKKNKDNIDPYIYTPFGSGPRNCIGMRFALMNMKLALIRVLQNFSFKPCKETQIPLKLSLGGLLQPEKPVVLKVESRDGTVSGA

| Compound | IC50 [1] | CYP2B6 Hillslope [1] | CYP3A4 Hillslope [2] | IC50 [2] | IC50 Ratio [1] | IC50 ([2]; read-out: CYP3A4 IC50, CYP3A4-transfected baculosomes, concentration-response, n = 3–12) |
| --- | --- | --- | --- | --- | --- | --- |
| O=C(O)c1ccccc1C(=O)O [Phthalic acid] | 1170 µM | −1.71 | – | – | – | – |
| C[C@H](CCC(=O)O)[C@H]1CC[C@H]2[C@@H]3[C@H](O)C[C@@H]4C[C@H](O)CC[C@]4(C)[C@H]3CC[C@]12C [Chenodeoxycholic acid] | 49 µM | −1.32 | – | – | – | – |
| CCNc1nc(Cl)nc(NC(C)C)n1 [Atrazine] | 0.144 µM | −0.34 | – | – | – | – |
| Oc1cc(Cl)ccc1Oc1ccc(Cl)cc1Cl [Triclosan] | 0.944 µM | −1.30 | −1.46 | – | – | – |
| CCCCCCCC/C=C\CCCCCCCC(=O)O [Oleic acid] | 9.3 µM | −2.45 | – | – | – | – |
| CC/C=C\C/C=C\C/C=C\CCCCCCCC(=O)O [α-Linolenic acid] | 7.32 µM | −1.45 | −0.701 | 4.04 µM | – | – |
| CCOP(=S)(OCC)Oc1ccc([N+](=O)[O-])cc1 [Parathion] | 0.026 µM | −1.13 | −0.094 | 0.729 µM | +28.03 | – |
| CCCCC/C=C\C/C=C\C/C=C\C/C=C\CCCC(=O)O [Arachidonic acid] | 1.04 µM | −0.59 | −4.08 | 13.7 µM | – | – |
| CC1(C)C(C=C(Cl)Cl)C1C(=O)OC(C#N)c1cccc(Oc2ccccc2)c1 (stereo not drawn) [Cypermethrin] | 6040 µM | −0.79 | – | – | – | – |
| CCCCC/C=C\C/C=C\CCCCCCCC(=O)O [Linoleic acid] | 9.19 µM | −0.69 | −4.46 | 18.3 µM | – | – |
| C[C@H](CCC(=O)O)[C@H]1CC[C@H]2[C@@H]3CC[C@@H]4C[C@H](O)CC[C@]4(C)[C@H]3CC[C@]12C [Lithocholic acid] | 2.47 µM | −0.51 | – | – | – | – |
| C[C@]12CC[C@@H]3c4ccc(O)cc4CC[C@H]3[C@@H]1CC[C@@H]2O [Estradiol] | 42.2 µM | −0.33 | −0.903 | 2.78 µM | – | – |
| Clc1ccccc1CN1CCc2sccc2C1 [Ticlopidine, reference compound] | – | −0.95 | – | – | – | – |
| Nonylphenol | – | −1.21 | −1.02 | – | – | 6.25 µM |
| C[C@]12CC[C@H]3[C@@H](CCC4=CC(=O)CC[C@@]43C)[C@@H]1CC[C@@H]2O [Testosterone] | 90.2 µM | −0.32 | – | – | – | – |
| CCOP(=S)(OCC)Oc1cc(C)nc(C(C)C)n1 [Diazinon] | 0.0754 µM | −1.51 | −2.52 | – | – | – |
| O=S1OCC2C(CO1)C1(Cl)C(Cl)=C(Cl)C2(Cl)C1(Cl)Cl (stereo not drawn) [Endosulfan] | 0.003 µM | −0.66 | −0.261 | 0.0046 µM | – | – |
| CC/C=C\C/C=C\C/C=C\C/C=C\C/C=C\C/C=C\CCC(=O)O [Docosahexaenoic acid] | 2.06 µM | −1.22 | −5.0 | 5.08 µM | – | – |
| CC(C)(c1ccc(O)cc1)c1ccc(O)cc1 [Bisphenol A] | 8.44 µM | −2.65 | – | – | – | – |
| CCOP(=S)(OCC)Oc1nc(Cl)c(Cl)cc1Cl [Chlorpyrifos] | 0.0092 µM | −2.09 | – | 0.28 µM | +30.4 | – |
| CCCCCCCCCCCCCCCC(=O)O [Palmitic acid] | – | – | – | 19900 µM | – | – |
